{"source": "patent US20160101148A1", "about": "“TREATMENT AND PREVENTION OF BACTERIAL SKIN INFECTIONS USING ORITAVANCIN” (priority 2013, published 2016)", "key": {"[1]": {"conditions": "protein binding values from Arhin et al., 2010 (oritavancin) and package inserts (comparators); cited from earlier work"}, "[2]": {"system": "ABSSSI caused by susceptible gram-positive bacteria, including MRSA", "assay": "SOLO II Phase 3 trial, efficacy", "format": "in vivo, human", "conditions": "for FDA primary endpoint: Cessation of spread, absence of fever, no rescue antibiotics / ≧20% reduction of lesion area / FDA primary endpoint: Cessation of spread, absence of fever, no rescue antibiotics, number of patients / ≧20% reduction of lesion area, number of patients: ECE; for EMA primary endpoint: Investigator-assessed clinical cure / EMA primary endpoint: Investigator-assessed clinical cure, number of patients: PTE", "text": "(§1) Complete results were obtained from a phase 3 clinical trial program of oritavancin (SOLO), which investigated the drug for the treatment of acute bacterial skin and skin structure infections (ABSSSI) caused by susceptible gram-positive bacteria, including methicillin-resistant Staphylococcus aureus (MRSA). SOLO I and SOLO II clinical trials were identical multicenter, double-blind, randomized clinical trials.\nIn SOLO II, all protocol-specified primary and secondary efficacy endpoints were met. […] The efficacy was similar in the overall population and in those patients with microbiologically confirmed MRSA infections."}, "[3]": {"assay": "SOLO II Phase 3 trial, safety", "format": "in vivo, human", "text": "Safety profiles, measured at any point up to 60 days after treatment, were similar across treatment groups in SOLO II."}, "[4]": {"system": "ABSSSI caused by susceptible gram-positive bacteria, including MRSA", "assay": "SOLO I and SOLO II combined, efficacy", "format": "in vivo, human", "conditions": "SOLO I and SOLO II combined; for FDA primary endpoint: Cessation of spread, absence of fever, no rescue antibiotics / ≧20% reduction of lesion area / FDA primary endpoint: Cessation of spread, absence of fever, no rescue antibiotics, number of patients / ≧20% reduction of lesion area, number of patients: ECE; for EMA primary endpoint: Investigator-assessed clinical cure / EMA primary endpoint: Investigator-assessed clinical cure, number of patients: PTE", "text": "as §1\nIn microbiologically confirmed MRSA patients, efficacy was similar in both treatment groups; however, a higher proportion of MRSA-infected patients in the oritavancin group achieved the endpoint of greater than or equal to 20% reduction of lesion area at ECE (p value=0.032). Under the Special Protocol Assessment (SPA) agreed with the FDA, the protocols pre-specified that MRSA patients from the SOLO studies would be pooled for the evaluation of efficacy.\nThe combined SOLO studies represented 1,987 patients in an intent-to-treat population for evaluation of oritavancin in the treatment of ABSSSI in controlled clinical trials and assessed one of the largest subsets of patients with documented MRSA infection (405 patients)."}, "[5]": {"assay": "Predicted free peak and free trough levels in plasma", "format": "in vivo", "conditions": "non-protein bound drug, representative human dose: oritavancin 1200 mg, vancomycin 1000 mg, daptomycin 4 mg/kg, linezolid 500 mg", "description": "ORI concentrations were chosen to approximate free peak (fCmax; defined as the peak concentration of non-protein bound drug) and free trough (fCmin; defined for ORI as the concentration of non-protein bound drug at 24 h) levels in plasma following administration of a 1200 mg dose (Belley et al., 2013 Table 10). ORI protein binding is estimated at approximately 85% in serum from nonclinical species and humans (Arhin et al., 2010). Doubling dilution concentrations of comparator agents were likewise chosen to approximate their fCmax and fCmin levels in plasma when administered at approved dosages for complicated skin and skin structure infections, using pharmacokinetic data and protein binding values from their respective package inserts (DAP [Cubicin®]; LZD [Zyvox®]; VAN [Vancocin®]; Table 3)."}, "[6]": {"system": "S. aureus strains (14 mecC MRSA, 2 mecA MRSA, ATCC 29213 MSSA)", "assay": "Broth microdilution MIC determination", "format": "cell-based, Staphylococcus aureus", "conditions": "Staphylococcus aureus", "description": "The S. aureus (SA) strains used in this study were: ATCC 43300 (mecA methicillin-resistant SA [MRSA]); ATCC 33591 (mecA MRSA), ATCC 29213 (methicillin-susceptible SA; quality control strain) and 14 mecC MRSA obtained from the Staten Serum Institute (Copenhagen, Denmark).\nTests with oritavancin included polysorbate-80 (final test concentration of 0.002%) as described (CLSI 2012a; Arhin et al., 2008). Tests with daptomycin included CaCl2 at a concentration of 50 mg/L. MICs were read after 24 h incubation."}, "[7]": {"assay": "SOLO I and SOLO II combined, safety", "format": "in vivo, human"}, "[8]": {"conditions": "confirmed MRSA, Microbiological ITT"}, "[9]": {"conditions": "confirmed MRSA, Microbiological ITT, oritavancin n = 100, vancomycin n = 101"}, "[10]": {"conditions": "mITT, oritavancin n = 503, vancomycin n = 502"}, "[11]": {"conditions": "confirmed MRSA, MicroITT, oritavancin n = 204, vancomycin n = 201"}, "[12]": {"conditions": "mITT, oritavancin n = 978, vancomycin n = 981"}}, "data": [{"smiles": "CN[C@H](CC(C)C)C(=O)N[C@H]1C(=O)N[C@@H](CC(N)=O)C(=O)N[C@H]2C(=O)N[C@H]3C(=O)N[C@H](C(=O)N[C@H](C(=O)O)c4cc(O)cc(O)c4-c4cc3ccc4O)[C@H](O)c3ccc(c(Cl)c3)Oc3cc2cc(c3O[C@@H]2O[C@H](CO)[C@@H](O)[C@H](O)[C@H]2O[C@H]2C[C@](C)(N)[C@H](O)[C@H](C)O2)Oc2ccc(cc2Cl)[C@H]1O", "note": "[Vancomycin, vancomycin]", "values": [{"measurement": "Free Fraction", "setting": "[1]", "result": 0.54}, {"measurement": "FDA primary endpoint: Cessation of spread, absence of fever, no rescue antibiotics", "setting": "[2]; [8]", "result": 81.2, "unit": "%"}, {"measurement": "≧20% reduction of lesion area", "setting": "[2]; [8]", "result": 90.1, "unit": "%"}, {"measurement": "FDA primary endpoint: Cessation of spread, absence of fever, no rescue antibiotics, number of patients", "setting": "[2]; [9]", "result": 82}, {"measurement": "≧20% reduction of lesion area, number of patients", "setting": "[2]; [9]", "result": 91}, {"measurement": "EMA primary endpoint: Investigator-assessed clinical cure", "setting": "[2]; [8]", "result": 85.1, "unit": "%"}, {"measurement": "EMA primary endpoint: Investigator-assessed clinical cure, number of patients", "setting": "[2]; [9]", "result": 86}, {"measurement": "FDA primary endpoint: Cessation of spread, absence of fever, no rescue antibiotics", "setting": "[2]; mITT", "result": 82.9, "unit": "%"}, {"measurement": "≧20% reduction of lesion area", "setting": "[2]; mITT", "result": 85.3, "unit": "%"}, {"measurement": "FDA primary endpoint: Cessation of spread, absence of fever, no rescue antibiotics, number of patients", "setting": "[2]; [10]", "result": 416}, {"measurement": "≧20% reduction of lesion area, number of patients", "setting": "[2]; [10]", "result": 428}, {"measurement": "EMA primary endpoint: Investigator-assessed clinical cure", "setting": "[2]; mITT", "result": 80.5, "unit": "%"}, {"measurement": "EMA primary endpoint: Investigator-assessed clinical cure, number of patients", "setting": "[2]; [10]", "result": 404}, {"measurement": "Treatment emergent adverse events considered by investigators as related to study drug", "setting": "[3]", "result": 25.5, "unit": "%"}, {"measurement": "Patients reported to experience at least one adverse event", "setting": "[3]; up to 60 days after treatment", "result": 50.2, "unit": "%"}, {"measurement": "FDA primary endpoint: Cessation of spread, absence of fever, no rescue antibiotics", "setting": "[4]; confirmed MRSA, MicroITT", "result": 80.6, "unit": "%"}, {"measurement": "≧20% reduction of lesion area", "setting": "[4]; confirmed MRSA, MicroITT", "result": 87.1, "unit": "%"}, {"measurement": "FDA primary endpoint: Cessation of spread, absence of fever, no rescue antibiotics, number of patients", "setting": "[4]; [11]", "result": 162}, {"measurement": "≧20% reduction of lesion area, number of patients", "setting": "[4]; [11]", "result": 175}, {"measurement": "EMA primary endpoint: Investigator-assessed clinical cure", "setting": "[4]; confirmed MRSA, MicroITT", "result": 84.1, "unit": "%"}, {"measurement": "EMA primary endpoint: Investigator-assessed clinical cure, number of patients", "setting": "[4]; [11]", "result": 169}, {"measurement": "FDA primary endpoint: Cessation of spread, absence of fever, no rescue antibiotics", "setting": "[4]; mITT", "result": 80.9, "unit": "%"}, {"measurement": "≧20% reduction of lesion area", "setting": "[4]; mITT", "result": 84.1, "unit": "%"}, {"measurement": "FDA primary endpoint: Cessation of spread, absence of fever, no rescue antibiotics, number of patients", "setting": "[4]; [12]", "result": 794}, {"measurement": "≧20% reduction of lesion area, number of patients", "setting": "[4]; [12]", "result": 825}, {"measurement": "EMA primary endpoint: Investigator-assessed clinical cure", "setting": "[4]; mITT", "result": 80.2, "unit": "%"}, {"measurement": "EMA primary endpoint: Investigator-assessed clinical cure, number of patients", "setting": "[4]; [12]", "result": 787}, {"measurement": "Doubling Dilution Concentration Representing Predicted fCmax", "setting": "[5]", "result": 16, "unit": "mg/L"}, {"measurement": "MIC90", "setting": "[6]", "result": 1, "unit": "µg/mL"}, {"measurement": "MIC", "setting": "[6]; 57147 MRSA (mecC)", "result": 1, "unit": "µg/mL"}, {"measurement": "MIC", "setting": "[6]; 70611 MRSA (mecC)", "result": 1, "unit": "µg/mL"}, {"measurement": "MIC", "setting": "[6]; 73348 MRSA (mecC)", "result": 1, "unit": "µg/mL"}, {"measurement": "MIC", "setting": "[6]; 73415 MRSA (mecC)", "result": 1, "unit": "µg/mL"}, {"measurement": "MIC", "setting": "[6]; 73617 MRSA (mecC)", "result": 1, "unit": "µg/mL"}, {"measurement": "MIC", "setting": "[6]; 73829 MRSA (mecC)", "result": 1, "unit": "µg/mL"}, {"measurement": "MIC", "setting": "[6]; 75814 MRSA (mecC)", "result": 1, "unit": "µg/mL"}, {"measurement": "MIC", "setting": "[6]; 76918 MRSA (mecC)", "result": 1, "unit": "µg/mL"}, {"measurement": "MIC", "setting": "[6]; 77431 MRSA (mecC)", "result": 1, "unit": "µg/mL"}, {"measurement": "MIC", "setting": "[6]; 77601 MRSA (mecC)", "result": 1, "unit": "µg/mL"}, {"measurement": "MIC", "setting": "[6]; 77950 MRSA (mecC)", "result": 1, "unit": "µg/mL"}, {"measurement": "MIC", "setting": "[6]; 77964 MRSA (mecC)", "result": 1, "unit": "µg/mL"}, {"measurement": "MIC", "setting": "[6]; 78085 MRSA (mecC)", "result": 1, "unit": "µg/mL"}, {"measurement": "MIC", "setting": "[6]; 78651 MRSA (mecC)", "result": 1, "unit": "µg/mL"}, {"measurement": "MIC", "setting": "[6]; ATCC 29213 (MSSA)", "result": 1, "unit": "µg/mL"}, {"measurement": "MIC", "setting": "[6]; ATCC 29213 / ATCC 33591 / MRSA / MSSA, ATCC 33591 MRSA (mecA)", "result": 1, "unit": "µg/mL"}, {"measurement": "MIC", "setting": "[6]; ATCC 29213 / ATCC 43300 / MRSA / MSSA, ATCC 43300 MRSA (mecA)", "result": 1, "unit": "µg/mL"}, {"measurement": "MIC", "setting": "[6]; all strains tested", "result": 1, "unit": "µg/mL"}, {"measurement": "Patients with adverse events leading to study drug discontinuation", "setting": "[7]", "result": 4.2, "unit": "%"}, {"measurement": "Treatment emergent adverse events considered by investigators as related to study drug", "setting": "[7]; p=0.002", "result": 28.4, "unit": "%"}, {"measurement": "Patients reported to experience at least one adverse event", "setting": "[7]; safety population", "result": 56.9, "unit": "%"}]}]}
